The values below are quoted from earlier work in patent US20030031676A1, “Conjugate compounds for treating atheroma and other diseases” (Pharmacyclics, Inc., priority 1999, published 2003).

For this series the following is noted: animal models.

Turning to lutetium (III) texaphyrin, the radiation sensitization activity result is on record as “lack of radiation sensitization activity”.
